Data as given in patent US20080214606A1, “Methods for the Identification and Use of Compounds Suitable for the Treatment of Drug Resistant Cancer Cells” (The Government of the United States of America as …, priority 2004, published 2008).

Biological target: T1, ABCC7 (Homo sapiens, UniProt P13569)
T1 construct: profiled in 60 diverse cancer cell lines (the NCI-60) using real-time RT-PCR; endogenous in cells; host or cells: NCI-60 human cancer cell lines
Test: Correlation of ABCC7 expression with drug sensitivity across the NCI-60
Assay type: cell-based
Settings: Pearson correlation of ABCC7 expression with sensitivity of the 60 cell lines; 1429 compounds; inverse, p < 0.0001
Experimental: (§1) Expression levels are measured by real-time quantitative RT-PCR using the LightCycler RNA Amplification SYBR Green kit and a LightCycler machine (Roche Biochemicals, Indianapolis, Ind.). […] When possible, the amplicons are designed to encompass exon-intron boundaries to avoid amplification of genomic DNA. Since the Syber Green assay detects accumulation of double stranded DNA, primers are selected (from a battery consisting of about 200 primers) that amplified a single product of the correct size.
(§2) RT-PCR is carried out on 150 ng total RNA, in the presence of 250 nM specific primers. Following reverse transcription (20 min at 50° C.), the PCR reaction consists of 45 cycles of denaturation (15 sec at 95° C.), annealing (30 sec at 58° C.), and elongation (30 sec at 72° C.). No-template (water) reaction mixtures are prepared as negative controls.
(§3) During PCR amplification, fluorescence emission is measured and recorded in real time by the LightCycler. Crossing point values are calculated, using the LightCycler software package, by the Fit Points analysis method, with baseline fluorescence set at 1. The SyberGreen assay measures accumulation of double-stranded products, and the appearance of primer dimers limits quantitation at high cycle numbers. The specificity of amplified products is verified by melting-curve analysis and agarose gel electrophoresis (not shown). The raw results are expressed as number of cycles to reach the crossing point. If the desired product is not detected, the corresponding value is adjusted to crossing points indicating no expression. To assess the contribution of experimental artifacts, selected cell lines are assessed in replicate.
(§4) The two are combined to form a joint dataset that includes 1429 compounds.
(§5) To determine quantitatively how well the 47 genes cluster the cell lines by their tissues of origin, a statistical method is employed wherein the kappa statistic is used to indicate how well the observed clusters correspond to the nine tissue-of-origin classifications. […] To control the overall false type 1 error rate, both a step-down procedure (Westfall and Young, 1993, Resampling-Based Multiple Testing: Examples and Methods for p-value Adjustment (New York: Wiley)) and a step-up procedure (Reiner et al., 2003, Bioinformatics 19:368-375) were employed to adjust for multiple testing of all 47 genes simultaneously. In the Benjamini-Hochberg procedure the p-values are computed in the standard way by permutation, assuming that all distributions are exchangeable: the number of values in the permuted data with correlations over a threshold, divided by the number of compounds and by the number of permutations. In this analysis, the False Discovery Rate (q-value) at which each compound would be declared was calculated using the step-up procedure for positively correlated test statistics (again true because all correlations being compared are computed against the same ABC gene): in this procedure the first q-value for the largest correlation is the Bonferroni-corrected p-value for that gene; then further q-values are calculated as qj=max(pj*1429/j, qj-1). This procedure limits the expected proportion of false positives in the list 1, . . . , j to at most qj.

Row | Compound | Correlation
1 | CC1CSC(=S)N1C(=O)N1C(=S)SCC1C (centres unmarked) [NSC 654968] | −0.5519
2 | COC(=O)CCC(=O)NC1=C(Nc2ccc(OC)cc2)C(=O)c2ccccc2C1=O [NSC 670766] | −0.4378
3 | CC(=O)Oc1c2ccsc2c(OC(C)=O)c2ccsc12 [NSC 695914] | −0.4297

Biological target: T2, ABCA1 (Homo sapiens, UniProt O95477)
T2 construct: profiled in 60 diverse cancer cell lines (the NCI-60) using real-time RT-PCR; endogenous in cells; host or cells: NCI-60 human cancer cell lines
T2 sequence (O95477 whole entry): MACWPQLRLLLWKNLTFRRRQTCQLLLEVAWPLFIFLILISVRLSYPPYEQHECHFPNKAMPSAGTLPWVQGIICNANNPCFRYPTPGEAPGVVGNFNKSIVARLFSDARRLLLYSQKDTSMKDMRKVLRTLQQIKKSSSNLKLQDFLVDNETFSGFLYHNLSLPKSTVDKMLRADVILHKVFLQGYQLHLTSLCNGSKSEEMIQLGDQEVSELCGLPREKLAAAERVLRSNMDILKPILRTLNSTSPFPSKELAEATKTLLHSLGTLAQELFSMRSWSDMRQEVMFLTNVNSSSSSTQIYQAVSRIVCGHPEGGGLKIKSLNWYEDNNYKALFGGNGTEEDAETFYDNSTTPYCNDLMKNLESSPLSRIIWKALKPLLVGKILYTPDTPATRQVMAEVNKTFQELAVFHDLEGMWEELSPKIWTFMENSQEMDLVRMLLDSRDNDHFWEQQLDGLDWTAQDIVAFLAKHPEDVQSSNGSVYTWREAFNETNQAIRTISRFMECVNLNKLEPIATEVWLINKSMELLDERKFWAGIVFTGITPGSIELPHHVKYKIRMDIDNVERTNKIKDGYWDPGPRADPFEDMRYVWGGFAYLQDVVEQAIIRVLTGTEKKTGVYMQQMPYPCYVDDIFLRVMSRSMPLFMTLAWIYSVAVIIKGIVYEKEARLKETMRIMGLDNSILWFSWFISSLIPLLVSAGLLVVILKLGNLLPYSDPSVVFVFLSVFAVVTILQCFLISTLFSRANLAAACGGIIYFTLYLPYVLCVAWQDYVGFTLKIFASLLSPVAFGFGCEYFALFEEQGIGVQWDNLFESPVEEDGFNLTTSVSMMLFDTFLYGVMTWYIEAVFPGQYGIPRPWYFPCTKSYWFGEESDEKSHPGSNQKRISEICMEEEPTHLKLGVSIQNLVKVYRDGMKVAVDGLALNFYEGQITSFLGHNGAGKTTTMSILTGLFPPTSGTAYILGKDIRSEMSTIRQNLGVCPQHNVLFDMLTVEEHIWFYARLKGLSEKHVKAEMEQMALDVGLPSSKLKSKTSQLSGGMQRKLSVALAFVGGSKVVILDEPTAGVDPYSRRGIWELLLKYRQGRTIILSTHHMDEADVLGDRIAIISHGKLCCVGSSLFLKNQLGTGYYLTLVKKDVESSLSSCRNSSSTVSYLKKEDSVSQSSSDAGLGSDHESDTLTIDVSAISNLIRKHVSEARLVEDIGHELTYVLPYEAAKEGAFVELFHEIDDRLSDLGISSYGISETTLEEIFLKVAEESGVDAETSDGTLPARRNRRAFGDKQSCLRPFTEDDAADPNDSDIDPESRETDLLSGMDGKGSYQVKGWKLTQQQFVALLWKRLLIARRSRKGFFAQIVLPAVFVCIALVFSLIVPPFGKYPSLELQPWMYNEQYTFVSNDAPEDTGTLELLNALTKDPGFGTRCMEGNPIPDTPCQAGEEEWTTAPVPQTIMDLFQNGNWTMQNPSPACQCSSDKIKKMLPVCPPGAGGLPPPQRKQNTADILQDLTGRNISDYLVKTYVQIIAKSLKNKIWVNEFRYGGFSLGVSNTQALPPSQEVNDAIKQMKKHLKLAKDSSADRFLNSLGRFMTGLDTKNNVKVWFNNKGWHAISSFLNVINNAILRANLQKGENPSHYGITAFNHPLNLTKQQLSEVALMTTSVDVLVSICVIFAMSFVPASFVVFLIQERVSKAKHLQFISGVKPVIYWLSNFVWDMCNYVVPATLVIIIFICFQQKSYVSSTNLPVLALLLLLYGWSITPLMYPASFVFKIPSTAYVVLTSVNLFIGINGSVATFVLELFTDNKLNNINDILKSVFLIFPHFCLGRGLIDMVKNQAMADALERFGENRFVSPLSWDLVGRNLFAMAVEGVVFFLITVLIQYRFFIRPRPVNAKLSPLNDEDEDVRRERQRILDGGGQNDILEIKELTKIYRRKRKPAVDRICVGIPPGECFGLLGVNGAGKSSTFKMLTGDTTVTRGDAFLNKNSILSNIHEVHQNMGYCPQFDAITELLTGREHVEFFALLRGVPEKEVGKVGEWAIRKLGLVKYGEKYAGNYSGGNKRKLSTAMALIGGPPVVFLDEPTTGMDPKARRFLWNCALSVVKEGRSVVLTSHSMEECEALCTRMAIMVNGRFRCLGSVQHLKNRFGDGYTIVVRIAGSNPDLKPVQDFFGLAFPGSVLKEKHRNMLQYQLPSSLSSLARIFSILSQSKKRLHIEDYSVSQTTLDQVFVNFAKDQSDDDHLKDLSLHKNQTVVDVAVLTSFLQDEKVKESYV
Test: Correlation of ABCA1 expression with drug sensitivity across the NCI-60
Assay type: cell-based
Settings: Pearson correlation of ABCA1 expression with sensitivity of the 60 cell lines; 1429 compounds; inverse, p < 0.0001
Experimental: as §1, §2, §3, §4
(§6) In the Benjamini-Hochberg procedure the p-values are computed in the standard way by permutation, assuming that all distributions are exchangeable: the number of values in the permuted data with correlations over a threshold, divided by the number of compounds and by the number of permutations. In this analysis, the False Discovery Rate (q-value) at which each compound would be declared was calculated using the step-up procedure for positively correlated test statistics (again true because all correlations being compared are computed against the same ABC gene): in this procedure the first q-value for the largest correlation is the Bonferroni-corrected p-value for that gene; then further q-values are calculated as qj=max(pj*1429/j, qj-1). This procedure limits the expected proportion of false positives in the list 1, . . . , j to at most qj.

Row | Compound | Correlation
4 | CC[n+]1c(/C=C/c2ccc(N(CCCl)CCCl)cc2)ccc2cc(NC(=O)/C=C/c3ccccc3)ccc21.[I-] [NSC 640085] | −0.3580
5 | OCCO[P+]1(OCCO)n2c3ccc2C(c2ccccc2)=C2C=CC(=N2)C(c2ccccc2)=c2ccc(n21)=C(c1ccccc1)C1=NC(=C3c2ccccc2)C=C1 [NSC 682066] | −0.3783
6 | CN(C)c1ccc(/C=c2/c3ccccc3n3c2cc(-c2ccc(Cl)cc2)[n+]3C)cc1.O=S(=O)([O-])C(F)(F)F [NSC 699479] | −0.4141

Biological target: ABCB1 (Homo sapiens, UniProt P08183)
Sequence (P08183 whole entry): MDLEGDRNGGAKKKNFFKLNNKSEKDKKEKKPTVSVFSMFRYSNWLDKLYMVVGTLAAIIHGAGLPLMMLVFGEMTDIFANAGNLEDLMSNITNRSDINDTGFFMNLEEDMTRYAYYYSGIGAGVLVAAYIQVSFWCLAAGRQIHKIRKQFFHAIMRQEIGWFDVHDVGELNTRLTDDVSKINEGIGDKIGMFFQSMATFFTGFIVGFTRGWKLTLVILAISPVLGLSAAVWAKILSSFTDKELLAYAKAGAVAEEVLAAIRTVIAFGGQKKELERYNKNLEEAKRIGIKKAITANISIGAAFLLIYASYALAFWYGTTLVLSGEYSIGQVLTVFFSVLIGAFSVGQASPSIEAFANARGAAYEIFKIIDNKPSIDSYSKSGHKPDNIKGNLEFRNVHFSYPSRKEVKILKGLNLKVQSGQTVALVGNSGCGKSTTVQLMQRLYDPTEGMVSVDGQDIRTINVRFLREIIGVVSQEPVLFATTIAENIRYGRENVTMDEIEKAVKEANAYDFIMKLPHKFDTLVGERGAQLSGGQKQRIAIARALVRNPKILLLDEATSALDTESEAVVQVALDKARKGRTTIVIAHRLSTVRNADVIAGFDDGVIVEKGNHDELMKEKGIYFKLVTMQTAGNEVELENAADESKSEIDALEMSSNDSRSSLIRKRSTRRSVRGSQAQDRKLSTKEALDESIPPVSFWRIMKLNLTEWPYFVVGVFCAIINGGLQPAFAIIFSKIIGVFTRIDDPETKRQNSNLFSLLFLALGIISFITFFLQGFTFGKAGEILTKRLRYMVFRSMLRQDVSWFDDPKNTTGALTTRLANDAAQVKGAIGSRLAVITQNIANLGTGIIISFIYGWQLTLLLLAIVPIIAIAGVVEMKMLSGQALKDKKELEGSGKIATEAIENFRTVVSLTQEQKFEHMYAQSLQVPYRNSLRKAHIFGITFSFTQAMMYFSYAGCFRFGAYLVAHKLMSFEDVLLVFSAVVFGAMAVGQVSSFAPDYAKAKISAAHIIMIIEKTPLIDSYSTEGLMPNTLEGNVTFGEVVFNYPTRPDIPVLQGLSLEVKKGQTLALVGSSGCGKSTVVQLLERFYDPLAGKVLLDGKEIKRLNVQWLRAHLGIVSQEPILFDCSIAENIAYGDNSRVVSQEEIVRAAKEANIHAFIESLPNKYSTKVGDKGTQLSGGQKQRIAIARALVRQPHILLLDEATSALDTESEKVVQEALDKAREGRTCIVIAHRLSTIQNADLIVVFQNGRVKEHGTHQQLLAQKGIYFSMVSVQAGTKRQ
Test: Correlation of ABCB1 expression with drug sensitivity across the NCI-60
Settings: not given
Outline: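 SYBR Green real-time RT-PCR on 150 ng total RNA with 250 nM primers: RT 20 min at 50 °C, then 45 cycles; expression taken as crossing-point cycle number. Correlated with drug sensitivity of 1429 compounds across the cell panel; permutation p-values with step-down and step-up (FDR q-value) multiple-testing correction.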

Row | Compound | Correlation
7 | OCCO[P+]1(OCCO)n2c3ccc2C(c2ccccc2)=C2C=CC(=N2)C(c2ccccc2)=c2ccc(n21)=C(c1ccccc1)C1=NC(=C3c2ccccc2)C=C1 [NSC 682066] | −0.7985

Biological target: T3, ABCA4 (Homo sapiens, UniProt P78363)
T3 construct: profiled in 60 diverse cancer cell lines (the NCI-60) using real-time RT-PCR; endogenous in cells; host or cells: NCI-60 human cancer cell lines
Test: Correlation of ABCA4 expression with drug sensitivity across the NCI-60
Assay type: cell-based
Settings: Pearson correlation of ABCA4 expression with sensitivity of the 60 cell lines; 1429 compounds; inverse, p < 0.0001
Experimental: (§7) Expression levels are measured by real-time quantitative RT-PCR using the LightCycler RNA Amplification SYBR Green kit and a LightCycler machine (Roche Biochemicals, Indianapolis, Ind.). Specific oligonucleotide probes are designed for each of the ABC transporters using DNAStar Primer Select (DNASTAR Inc.), and they may be synthesized at Lofstrand Laboratories (Gaithersburg, Md.). When possible, the amplicons are designed to encompass exon-intron boundaries to avoid amplification of genomic DNA. Since the Syber Green assay detects accumulation of double stranded DNA, primers are selected (from a battery consisting of about 200 primers) that amplified a single product of the correct size.
as §2, §3, §4
(§8) To control the overall false type 1 error rate, both a step-down procedure (Westfall and Young, 1993, Resampling-Based Multiple Testing: Examples and Methods for p-value Adjustment (New York: Wiley)) and a step-up procedure (Reiner et al., 2003, Bioinformatics 19:368-375) were employed to adjust for multiple testing of all 47 genes simultaneously. […] In this analysis, the False Discovery Rate (q-value) at which each compound would be declared was calculated using the step-up procedure for positively correlated test statistics (again true because all correlations being compared are computed against the same ABC gene): in this procedure the first q-value for the largest correlation is the Bonferroni-corrected p-value for that gene; then further q-values are calculated as qj=max(pj*1429/j, qj-1). […]

Row | Compound | Correlation
8 | CC1=C(C(=O)Nc2ccccc2)C(c2ccc(N(C)C)cc2)C(C(=O)Nc2ccccc2)=C(C)N1 [NSC 636092] | −0.3977
9 | COc1cc(CNc2ccc(SC)cc2)cc(OC)c1OC [NSC 650771] | −0.3792
10 | Cc1cc(C)c2c(=O)cc(-c3ccccc3)[nH]c2c1 [NSC 665925] | −0.4545
11 | C=C1[C@H](OCC(C)C)[C@@H](O)[C@@H](OC(=O)c2cccnc2)C(C)(C)/C=C/[C@H](C)[C@H](OC(C)=O)[C@@]2(O)C[C@@](C)(OC(C)=O)[C@H](OC(=O)c3ccccc3)[C@@H]2[C@H]1OC(C)=O [NSC 688235] | −0.3557

Biological target: T4, ABCA12 (Homo sapiens, UniProt Q86UK0)
T4 construct: profiled in 60 diverse cancer cell lines (the NCI-60) using real-time RT-PCR; endogenous in cells; host or cells: NCI-60 human cancer cell lines
Test: Correlation of ABCA12 expression with drug sensitivity across the NCI-60
Assay type: cell-based
Settings: Pearson correlation of ABCA12 expression with sensitivity of the 60 cell lines; 1429 compounds; inverse, p < 0.0001
Experimental: as §7, §2, §3, §4, §8

Row | Compound | Correlation
12 | COC(=O)c1ccccc1NC(=O)C(=O)CC(=O)c1ccccc1NC1=CC(=O)C(=O)c2ccccc21 [NSC 641240] | −0.5165
13 | O=C1C=C(Nc2ccccc2C(=O)CC(=O)C(=O)Nc2cccc(C(F)(F)F)c2)c2ccccc2C1=O [NSC 644751] | −0.5643
14 | COC1=C(OC)C(=O)c2cc(C)c(=O)c(C)cc2C1=O [NSC 649666] | −0.3757
15 | COc1cc2c(cc1O)CC[C@@H]1[C@@H]2CC[C@]2(C)[C@@H](O)CC[C@@H]12 [NSC 659853] | −0.5016

Biological target: T5, ABCC3 (Homo sapiens, UniProt O15438)
T5 construct: profiled in 60 diverse cancer cell lines (the NCI-60) using real-time RT-PCR; endogenous in cells; host or cells: NCI-60 human cancer cell lines
T5 sequence (O15438 whole entry): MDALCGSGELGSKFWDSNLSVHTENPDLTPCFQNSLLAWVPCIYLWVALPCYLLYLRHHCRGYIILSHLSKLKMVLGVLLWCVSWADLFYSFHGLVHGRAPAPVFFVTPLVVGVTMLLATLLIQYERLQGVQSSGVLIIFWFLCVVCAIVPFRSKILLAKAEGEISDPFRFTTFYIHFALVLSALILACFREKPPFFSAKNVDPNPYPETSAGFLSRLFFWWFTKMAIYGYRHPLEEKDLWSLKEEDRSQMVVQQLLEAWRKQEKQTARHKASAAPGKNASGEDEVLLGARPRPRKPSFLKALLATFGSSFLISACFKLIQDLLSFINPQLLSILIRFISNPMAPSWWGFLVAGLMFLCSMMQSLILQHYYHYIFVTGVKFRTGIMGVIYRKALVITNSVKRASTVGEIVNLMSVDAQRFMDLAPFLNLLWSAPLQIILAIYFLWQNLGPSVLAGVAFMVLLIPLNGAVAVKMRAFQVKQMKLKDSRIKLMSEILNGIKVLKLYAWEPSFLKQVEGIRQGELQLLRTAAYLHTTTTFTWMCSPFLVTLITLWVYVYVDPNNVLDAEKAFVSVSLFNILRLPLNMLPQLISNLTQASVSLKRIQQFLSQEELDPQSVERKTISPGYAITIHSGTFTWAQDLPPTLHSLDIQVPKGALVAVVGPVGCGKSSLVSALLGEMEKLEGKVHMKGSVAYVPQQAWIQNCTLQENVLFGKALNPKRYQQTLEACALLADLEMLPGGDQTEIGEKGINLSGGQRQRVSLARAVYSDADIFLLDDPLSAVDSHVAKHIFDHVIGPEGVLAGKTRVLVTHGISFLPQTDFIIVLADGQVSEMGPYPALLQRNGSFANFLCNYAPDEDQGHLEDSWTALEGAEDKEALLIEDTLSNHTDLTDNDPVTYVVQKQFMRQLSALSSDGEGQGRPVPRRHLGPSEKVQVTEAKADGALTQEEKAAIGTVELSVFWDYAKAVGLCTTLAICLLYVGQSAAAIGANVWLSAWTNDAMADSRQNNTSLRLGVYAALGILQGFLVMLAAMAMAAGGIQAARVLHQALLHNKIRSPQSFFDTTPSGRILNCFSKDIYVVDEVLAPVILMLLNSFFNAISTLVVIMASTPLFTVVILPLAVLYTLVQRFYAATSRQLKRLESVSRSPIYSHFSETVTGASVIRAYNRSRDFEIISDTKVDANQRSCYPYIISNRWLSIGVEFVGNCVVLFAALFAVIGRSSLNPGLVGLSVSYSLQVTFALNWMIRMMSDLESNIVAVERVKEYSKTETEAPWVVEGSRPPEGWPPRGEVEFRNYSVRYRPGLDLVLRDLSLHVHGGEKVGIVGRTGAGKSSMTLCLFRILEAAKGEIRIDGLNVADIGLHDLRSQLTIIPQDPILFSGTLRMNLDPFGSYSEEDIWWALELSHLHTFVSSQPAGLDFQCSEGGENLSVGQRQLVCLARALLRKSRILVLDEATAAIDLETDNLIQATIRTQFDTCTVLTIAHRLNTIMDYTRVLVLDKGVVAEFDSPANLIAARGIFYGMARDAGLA
Test: Correlation of ABCC3 expression with drug sensitivity across the NCI-60
Assay type: cell-based
Settings: Pearson correlation of ABCC3 expression with sensitivity of the 60 cell lines; 1429 compounds; inverse, p < 0.0001
Experimental: as §1, §2, §3, §4, §5

Row | Compound | Correlation
16 | COC(=O)c1ccccc1NC(=O)C(=O)CC(=O)c1ccccc1NC1=CC(=O)C(=O)c2ccccc21 [NSC 641240] | −0.5829
17 | Cc1oc2c(c1C(=O)c1ccccc1)C(=O)c1ccccc1C2=O [NSC 641594] | −0.4994
18 | CC(C)(C)NNc1c([N+](=O)[O-])cnn(-c2ccccc2)c1=O [NSC 641820] | −0.3991
19 | O=C1C=C(Nc2ccccc2C(=O)CC(=O)C(=O)Nc2cccc(C(F)(F)F)c2)c2ccccc2C1=O [NSC 644751] | −0.5748
20 | CC(=O)NC1=CC(=O)c2cc(C)cc(O)c2C1=O [NSC 658450] | −0.5526
21 | CCOC(=O)/C(C#N)=C/c1ccc2c(c1)CC1(C2)Cc2cc(CC)c(C(C)O)cc2C1 (centres unmarked) [NSC 670289] | −0.3824

Biological target: T6, ABCC1 (Homo sapiens, UniProt P33527)
T6 construct: profiled in 60 diverse cancer cell lines (the NCI-60) using real-time RT-PCR; endogenous in cells; host or cells: NCI-60 human cancer cell lines
Test: Correlation of ABCC1 expression with drug sensitivity across the NCI-60
Assay type: cell-based
Settings: Pearson correlation of ABCC1 expression with sensitivity of the 60 cell lines; 1429 compounds; inverse, p < 0.0001
Experimental: as §1, §2, §3, §4, §6

Row | Compound | Correlation
22 | CCOC(=O)CNC(=O)NC12CC3CC(CC(C3)C1)C2 [NSC 208914] | −0.4950
23 | C=C(c1ccccc1)[C@@]1(O)CC[C@@H]1N(CC#N)Cc1ccccc1 [NSC 617644] | −0.5087
24 | Cc1oc2c(c1C(=O)c1ccccc1)C(=O)c1ccccc1C2=O [NSC 641594] | −0.4324
25 | CC1C(c2ccc3c(c2)OCO3)c2cc3c(cc2OC1N1CCOCC1)OCO3 (centres unmarked) [NSC 666222] | −0.3675
26 | COC(=O)CCC(=O)NC1=C(Nc2ccccc2)C(=O)c2ccccc2C1=O [NSC 670762] | −0.4326
